{"source": "patent EP1058559B1", "about": "“COMBINATION OF A SELECTIVE NMDA NR2B ANTAGONIST AND A COX-2 INHIBITOR” (MERCK SHARP & DOHME LTD., priority 1998, dated 1999)", "key": {"[1]": {"system": "mechanical hyperalgesia induced by carrageenan", "assay": "carrageenan-induced hyperalgesia assay (mechanical thresholds, modified Ugo Basile Algesiometer)", "assay_type": "in vivo, male Sprague Dawley rats", "conditions": "for inhibition of hyperalgesia: alone, Figure 2", "experimental": "(§1) The present Example examined whether NMDA NR2B receptor antagonists have an improved therapeutic window over unselective NNIDA/glycine antagonists and other ion channel blockers including lamotrigine and gabapentin, by comparing their anti-algesic effects with their liability to induce motor impairment in rats. Anti-algesic activity was assessed using an assay of neuropathic pain in rats (sciatic nerve ligation) and in a carrageenan-induced hyperalgesia assay. Motor impairment was measured using an accelerating rotarod.\nFor sciatic nerve ligation, male Sprague Dawley rats (180-220g) were anaesthetised with isofluorane, the left sciatic nerve exposed and 4 chromic catgut (4.0) ligatures were tied loosely around the nerve (spaced 1-2 mm apart) immediately proximal to the point of trifurcation. In shamoperated animals, the same dissection was performed but without ligation. Responses to mechanical pressure were assessed 7 days after ligation using a modified Randall-Selitto algesiometer in which constant force of […] was applied to the hind paw and the latency to struggle was recorded as the reaction time. […] Reaction times for drug treated rats were expressed as a percentage of this response. […] In the carrageenan-induced hyperalgesia assay, male Sprague Dawley rats (100-120 g) received an intraplantar injection of carrageenan (4.5 mg) and mechanical thresholds were determined 3 h later using a modified Ugo Basile Algesiometer. […] Paw pressure scores for drug-treated rats were expressed as a percentage of this response. […] Animals then received drug treatments and 1 h later were placed on an accelerating rotarod (increasing from 4 - 40 r.p.m. during a 5 min period) and the time the rats were able to remain on the rotarod recorded. […]\nMate Sprague Dawley rats (100-120 g) received an intraplantar injection of carrageenan (4.5 mg) and mechanical thresholds were determined 3 h later using a modified Ugo Basile Algesiometer. […] Paw pressure scores for drug-treated rats were expressed as a percentage of this response. […]"}, "[2]": {"system": "mechanical allodynia induced by sciatic nerve ligation", "assay": "sciatic nerve ligation assay of neuropathic pain (mechanical allodynia, modified Randall-Selitto algesiometer)", "assay_type": "in vivo, male Sprague Dawley rats", "conditions": "result in words; given 1 h before the test", "experimental": "as §1\n(§2) For sciatic nerve ligation, male Sprague Dawley rats (180-220g) were anaesthetised with isofluorane, the left sciatic nerve exposed and 4 chromic catgut (4.0) ligatures were tied loosely around the nerve (spaced 1-2 mm apart) immediately proximal to the point of trifurcation. In shamoperated animals, the same dissection was performed but without ligation. Responses to mechanical pressure were assessed 7 days after ligation using a modified Randall-Selitto algesiometer in which constant force of […] was applied to the hind paw and the latency to struggle was recorded as the reaction time. Mechanical allodynia was defined as the difference in reaction time for sham and ligature rats. Reaction times for drug treated rats were expressed as a percentage of this response. Compounds were administered 1 h before the test. In the carrageenan-induced hyperalgesia assay, male Sprague Dawley rats (100-120 g) received an intraplantar injection of carrageenan (4.5 mg) and mechanical thresholds were determined 3 h later using a modified Ugo Basile Algesiometer. Control rats received saline (0.15 ml i.pl.). Hyperalgesia was defined as the difference in vocalisation threshold for saline- and carrageenan-injected rats. Paw pressure scores for drug-treated rats were expressed as a percentage of this response. Compounds were administered 2 h after carrageenan. To determine the effects of the compounds on motor co-ordination, male Sprague Dawley rats (160-180 g) were first trained to remain for 120 s on the rotarod apparatus revolving at 12 r.p.m. on the morning before the test. Animals then received drug treatments and 1 h later were placed on an accelerating rotarod (increasing from 4 - 40 r.p.m. during a 5 min period) and the time the rats were able to remain on the rotarod recorded. Lamotrigine, gabapentin and (±)-CP-101,606 were suspended in 0.5% methocel and administered orally (1 ml/kg). Ifenprodil, L-701,324, L-687,414 and (±)-Ro25-6981 were dissolved or suspended in 0.5% methocel and administered intraperitoneally (1 ml/kg). MK-801 was dissolved in distilled water and given i.p. (1 ml/kg). Doses of compounds refer to the free base."}, "[3]": {"system": "motor co-ordination", "assay": "accelerating rotarod (motor co-ordination) with observed behaviour", "assay_type": "in vivo, male Sprague Dawley rats", "conditions": "for ID50 Motor Impairment Rat Rotarod: male, Sprague Dawley, in vivo, ip, 1 h", "experimental": "as §1, §2\nTo determine the effects of morphine and (±)-Ro25-6981 on motor co-ordination, male Sprague Dawley rats (160-180 g) were first trained to remain for 120 s on the rotarod apparatus revolving at. 12 r.p.m. on the morning before the test. Animals then received drug treatments and 1 h later were placed on an accelerating rotarod (increasing from 4 - 40 r.p.m. during a 5 min period) and the time the rats were able to remain on the rotarod recorded."}, "[4]": {"conditions": "at doses showing no behavioural abnormality; cited from earlier work"}}}
{"molecule": "C[C@@H](CN1CCC(Cc2ccccc2)CC1)[C@@H](O)c1ccc(O)cc1", "note": "(racemic) [(±)-Ro25-6981]", "values": [{"measurement": "reversal of mechanical hyperalgesia induced by carrageenan", "setting": "[1]; 10 and 30 mg/kg i.p., Figure 1", "result": "dose-dependent reversal of mechanical hyperalgesia"}, {"measurement": "reversal of mechanical allodynia induced by sciatic nerve ligation", "setting": "[2]", "result": "dose-dependently reversed mechanical allodynia"}, {"measurement": "ID50 Motor Impairment Rat Rotarod", "setting": "[3]", "result": "≥100", "unit": "mg/kg"}]}
{"molecule": "NCC1(CC(=O)O)CCCCC1", "note": "[Gabapentin]", "values": [{"measurement": "reversal of mechanical allodynia induced by sciatic nerve ligation", "setting": "[2]", "result": "reversed mchanical allodynia"}, {"measurement": "motor impairments observed", "setting": "[3]; doses of 30-300 mg/kg", "result": "motor impairments (ataxia)"}]}
{"molecule": "CC(C(O)c1ccc(O)cc1)N1CCC(Cc2ccccc2)CC1", "note": "(centres unmarked) [Ifenprodil]", "values": [{"measurement": "reversal of mechanical allodynia induced by sciatic nerve ligation", "setting": "[2]", "result": "reversed mchanical allodynia"}, {"measurement": "ID50 Motor Impairment Rat Rotarod", "setting": "[3]", "result": "≥50", "unit": "mg/kg"}]}
{"molecule": "C[C@@H]1CN(O)C(=O)[C@@H]1N", "note": "[L-687,414]", "values": [{"measurement": "reversal of mechanical allodynia induced by sciatic nerve ligation", "setting": "[2]", "result": "dose-dependently reversed mechanical allodynia"}]}
{"molecule": "O=c1[nH]c2cc(Cl)ccc2c(O)c1-c1cccc(Oc2ccccc2)c1", "note": "[L-701,324]", "values": [{"measurement": "reversal of mechanical allodynia induced by sciatic nerve ligation", "setting": "[2]", "result": "dose-dependently reversed mechanical allodynia"}, {"measurement": "behavioural effects observed", "setting": "[3]; 10 and 30 mg/kg i.p.", "result": "ataxia"}]}
{"molecule": "CS(=O)(=O)Nc1cc2c(cc1Sc1ccc(F)cc1F)C(=O)CC2", "note": "[L-745,337]", "values": [{"measurement": "inhibition of hyperalgesia", "setting": "[1]; 3 mg/kg p.o.", "result": 75, "unit": "%"}, {"measurement": "inhibition of hyperalgesia", "setting": "[1]; 0.3-3 mg/kg p.o., result in words", "result": "dose-dependent inhibition of hyperalgesia"}]}
{"molecule": "Nc1nnc(-c2cccc(Cl)c2Cl)c(N)n1", "note": "[Lamotrigine]", "values": [{"measurement": "reversal of mechanical allodynia induced by sciatic nerve ligation", "setting": "[2]", "result": "reversed mchanical allodynia"}]}
{"molecule": "C[C@]12N[C@H](Cc3ccccc31)c1ccccc12", "note": "[MK-801]", "values": [{"measurement": "reversal of mechanical allodynia induced by sciatic nerve ligation", "setting": "[2]", "result": "dose-dependently reversed mechanical allodynia"}, {"measurement": "behavioural effects observed", "setting": "[3]; 0.3 and 1 mg/kg doses (i.p.)", "result": "Body rolling, and head weaving"}]}
{"molecule": "(±)-CP-101,606", "values": [{"measurement": "reversal of mechanical allodynia induced by sciatic nerve ligation", "setting": "[2]", "result": "dose-dependently reversed mechanical allodynia"}, {"measurement": "analgesic activity", "setting": "[4]", "result": "Potent analgesic activity"}]}
